# Results taken from publication PMC8187479, “Sugar phosphate activation of the stress sensor eIF2B” (Nature Communications, 2021).
# Target: T1, eIF2Bα (Homo sapiens, UniProt Q14232)
# T1 construct: made in house; host or cells: E. coli BL21(DE3)
# T1 sequence (Q14232 1-305): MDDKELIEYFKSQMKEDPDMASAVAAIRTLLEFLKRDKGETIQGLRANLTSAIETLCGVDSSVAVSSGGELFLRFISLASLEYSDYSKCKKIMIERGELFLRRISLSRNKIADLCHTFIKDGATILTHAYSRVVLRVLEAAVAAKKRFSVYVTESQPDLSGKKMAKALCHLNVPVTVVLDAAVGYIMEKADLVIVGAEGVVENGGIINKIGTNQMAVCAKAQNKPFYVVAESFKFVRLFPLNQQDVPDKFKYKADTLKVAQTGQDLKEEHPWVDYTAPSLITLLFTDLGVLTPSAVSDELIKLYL
# Test: MIDAS (mass spectrometry integrated with equilibrium dialysis) metabolite binding screen
# Settings: MIDAS metabolite binding screen with eIF2Bα; sheet "eIF2Ba"
# Description: Metabolites were combined into four defined screening pools. […] To the reverse side, 300 μL of 50 μM per metabolite pool was aliquoted and sealed (metabolite chamber). Loaded dialysis plates were placed in the dark at 4 °C on a rotating shaker (120 rpm) and incubated for 40 h. Post-dialysis, metabolites were isolated from each chamber by cold methanol extraction. Each sample was analyzed in technical triplicate by FIA-MS on a SCIEX X500R QTOF MS with interspersed blanks injections. The input metabolite pools were assayed at the beginning, middle, and end of each MS method batch for QC and normalization.
# MIDAS FIA-MS spectra were processed in SCIEX OS 1.6 software to determine metabolite abundances by integrating the mean area under the curve for each extracted ion chromatogram. For each dialysis replicate, log2(fold change) for each metabolite was calculated as the difference between the log2 abundance in the protein chamber and metabolite chamber. For each technical triplicate, up to one outlier was removed using a z-score cutoff of five (<0.1% of observations). The corrected technical replicates were collapsed to one mean fold-change summary per protein-metabolite pair. To remove fold-change variation that was not specific to a given metabolite-protein pair, the first three principal components of the total screening dataset were removed on a per metabolite pool basis by subtracting the projection of the first 3 principal components, creating log2(corrected fold change). Protein-metabolite z-scores were determined by comparing the target protein-metabolite log2(corrected fold change) to a no-signal model for that metabolite using measures of the central tendency (median) and standard deviation (extrapolated from the 25–75% quantiles), which are robust to the signals in the tails of a metabolite’s fold-change distribution. Z-scores were false-discovery rate controlled using Storey’s q-value (qvalue, R) and protein-metabolite interactions with q-values < 0.1 were considered significant.
row,Compound,log2(corrected fold change)
1,CC(=O)N[C@H]1[C@H]([C@H](O)[C@H](O)CO)O[C@](OP(=O)(O)OC[C@H]2O[C@@H](n3ccc(N)nc3=O)[C@H](O)[C@@H]2O)(C(=O)O)C[C@@H]1O,-0.01546
2,CC(=O)NC1C(OP(=O)(O)OP(=O)(O)OCC2OC(n3ccc(=O)[nH]c3=O)C(O)C2O)OC(CO)C(O)C1O (stereo not shown),-0.0409
3,Nc1c(O)cccc1C(=O)CC(N)C(=O)O (racemic) [3-Hydroxy-DL-kynurenine],0.08675
4,NC(CP(=O)(O)O)C(=O)O (racemic) [DL-2-Amino-3-phosphonopropionic acid],-0.05707
5,"O=C(O)C(O)c1ccc(O)c(O)c1 (racemic) [DL-3,4-Dihydroxymandelic acid]",-0.05412
6,NC(CCS)C(=O)O (racemic) [DL-Homocysteine],-0.005857
7,O=C(O)CC(C(=O)O)C(O)C(=O)O (racemic) [DL-Isocitric acid],-0.01609
8,Cn1cnc(CCN)c1 [1-Methylhistamine],-0.03686
9,C[n+]1cccc(C(N)=O)c1 [1-Methylnicotinamide],0.02855
10,"O=C(O)C(O)CO (stereo not shown) [2,3-Dihydroxypropanoic acid]",0.03679
11,"OCC(O)COC1OC(CO)C(O)C(O)C1O (stereo not shown) [2,3-Dihydroxypropyl hexopyranoside]",0.03531
12,"O=C(O)C(COP(=O)(O)O)OP(=O)(O)O [2,3-Diphospho-D-glyceric acid]",0.003153
13,"O=C(O)c1cc(O)ccc1O [2,5-Dihydroxybenzoic acid]",0.05271
14,O=C(O)C[C@H](O)[C@H](O)CO [2-Deoxy-D-ribonic acid],-0.009975
15,Nc1ncnc2c1ncn2C1CC(O)C(CO)O1 (stereo not shown) [2-Deoxyadenosine],0.4061
16,Nc1ccn([C@H]2C[C@H](O)[C@@H](COP(=O)(O)OP(=O)(O)O)O2)c(=O)n1 [2-Deoxycytidine 5-diphosphate],0.01712

row,Compound,log2(corrected fold change)
1,Nc1nc2c(ncn2[C@H]2C[C@H](O)[C@@H](COP(=O)(O)OP(=O)(O)O)O2)c(=O)[nH]1 [2-Deoxyguanosine 5-diphosphate],-0.09804
2,Nc1nc2c(ncn2[C@H]2C[C@H](O)[C@@H](COP(=O)(O)OP(=O)(O)OP(=O)(O)O)O2)c(=O)[nH]1 [2-Deoxyguanosine 5-triphosphate],0.05437
3,O=c1ccn([C@H]2C[C@H](O)[C@@H](CO)O2)c(=O)[nH]1 [2-Deoxyuridine],0.04824
4,CCC(C)C(O)C(=O)O (stereo not shown) [2-Hydroxy-3-methylpentanoic acid],-0.0302
5,CC(C)CC(O)C(=O)O (stereo not shown) [2-Hydroxyisocaproic acid],-0.0302
6,O=C(O)CCCC(=O)C(=O)O [2-Oxoadipic acid],-0.03769
7,O=C(O)COP(=O)(O)O [2-Phosphoglycolic acid],0.0426
8,"CC(C)=CC(=O)O [3,3-Dimethylacrylic acid]",0.01899
9,NC1CCCNC1=O (stereo not shown) [3-Aminopiperidin-2-one],0.003124
10,O=C(O)c1ccoc1 [3-Furoic acid],-0.01812
11,CC(O)(CC(=O)O)CC(=O)O [3-Hydroxy-3-methylglutaric acid],0.0406
12,CC(O)(CC(=O)O)CC(=O)SCCNC(=O)CCNC(=O)[C@H](O)C(C)(C)COP(=O)(O)OP(=O)(O)OC[C@H]1O[C@@H](n2cnc3c(N)ncnc32)[C@H](O)[C@@H]1OP(=O)(O)O (stereo partly shown) [3-Hydroxy-3-methylglutaryl coenzyme A],0.00866
13,Nc1c(O)cccc1C(=O)O [3-Hydroxyanthranilic acid],-0.02136
14,CC(O)CC(=O)SCCNC(=O)CCNC(=O)[C@H](O)C(C)(C)COP(=O)(O)OP(=O)(O)OC[C@H]1O[C@@H](n2cnc3c(N)ncnc32)[C@H](O)[C@@H]1OP(=O)(O)O (stereo partly shown) [3-Hydroxybutyryl coenzyme A],0.00715
15,O=C(O)CCO [3-Hydroxypropionic acid],-0.02892
16,CC(=CC(=O)O)CC(=O)O [3-Methylglutaconic acid],-0.01192

# Same assay, conditions: MIDAS screen, sheet eIF2Ba; metabolites screened in pools 1-4; p-value and q-value given
row,Compound,log2(corrected fold change)
1,"OCC(O)c1ccc(O)c(O)c1 (racemic) [DL-3,4-Dihydroxyphenyl glycol]",-0.07769
2,CC(CNC(N)=O)C(=O)O (racemic) [DL-3-Ureidoisobutyric acid],0.1976
3,COc1cc(C(O)C(=O)O)ccc1O (racemic) [DL-4-Hydroxy-3-methoxymandelic acid],-0.08249
4,NCC(O)CCC(N)C(=O)O (racemic) [DL-5-Hydroxylysine],-0.09937
5,N[C@H](CCSSCC[C@@H](N)C(=O)O)C(=O)O (racemic) [DL-Homocystine],0.09463
6,O=C(O)C(O)c1ccccc1 (racemic) [DL-Mandelic acid],0.3212
7,NC(=O)CCC(N)C(=O)O (stereo in doubt) [D-Glutamine],0.1976
8,"NCCCN [1,3-Diaminopropane]",0.2387
9,Cn1cnc(C[C@H](N)C(=O)O)c1 [1-Methyl-L-histidine],-0.1945
10,"O=C(O)c1cccnc1C(=O)O [2,3-Pyridinedicarboxylic acid]",0.05596
11,"O=Cc1cc(O)ccc1O [2,5-Dihydroxybenzaldehyde]",0.1295
12,CCC(CO)C(=O)O (stereo not shown) [2-(Hydroxymethyl)butanoic acid],0.09429
13,COc1cccc(C(=O)O)c1N [2-Amino-3-methoxybenzoic acid],-0.1539
14,NC(CCCC(=O)O)C(=O)O (stereo not shown) [2-Aminoadipic acid],-0.07731
15,Nc1ccn([C@H]2C[C@H](O)[C@@H](COP(=O)(O)O)O2)c(=O)n1 [2-Deoxy-5-cytidylic acid],0.04298
16,O=CC[C@H](O)[C@H](O)CO [2-Deoxy-D-ribose],-0.2249
17,Nc1ncnc2c1ncn2[C@H]1C[C@H](O)[C@@H](COP(=O)(O)OP(=O)(O)OP(=O)(O)O)O1 [2-Deoxyadenosine 5-triphosphate],-0.07151
18,Nc1ccn([C@H]2C[C@H](O)[C@@H](CO)O2)c(=O)n1 [2-Deoxycytidine],0.344

row,Compound,log2(corrected fold change)
1,Nc1nc2c(ncn2[C@H]2C[C@H](O)[C@@H](CO)O2)c(=O)[nH]1 [2-Deoxyguanosine],-0.1329
2,O=c1[nH]cnc2c1ncn2[C@H]1C[C@H](O)[C@@H](CO)O1 [2-Deoxyinosine],0.06917
3,O=P(O)(O)OC[C@H]1O[C@@H](O)C[C@@H]1O [2-Deoxyribose-5-phosphate],1.609
4,O=c1ccn([C@H]2C[C@H](O)[C@@H](COP(=O)(O)O)O2)c(=O)[nH]1 [2-Deoxyuridine 5-monophosphate],0.2736
5,CCC(O)C(=O)O (stereo not shown) [2-Hydroxybutanoic acid],0.07137
6,O=C(O)Cc1ccccc1O [2-Hydroxyphenylacetic acid],-0.07366
7,CCC(=O)C(=O)O [2-Ketobutyric acid],-0.05529
8,CC(CCC(=O)O)C(=O)O (stereo not shown) [2-Methylglutaric acid],-0.09665
9,"N[C@@H](Cc1ccc(O)c(O)c1)C(=O)O [3,4-Dihydroxy-L-phenylalanine]",0.5098
10,"O=C(O)Cc1ccc(O)c(O)c1 [3,4-Dihydroxyphenylacetic acid]",0.1411
11,"N[C@@H](Cc1cc(I)c(O)c(I)c1)C(=O)O [3,5-Diiodo-L-tyrosine]",0.05791
12,CC(CN)C(=O)O (stereo not shown) [3-Aminoisobutyric acid],-0.1018
13,CC(O)CC(=O)O (stereo not shown) [3-Hydroxybutyric acid],0.07137
14,N[C@@H](Cc1ccc(O)c(I)c1)C(=O)O [3-Iodo-L-tyrosine],0.6259
15,COc1cc(CCN)ccc1O [3-Methoxytyramine],0.126
16,CCC(C)C(=O)C(=O)O (stereo not shown) [3-Methyl-2-oxovaleric acid],-0.05419
17,CC(CC(=O)O)CC(=O)O [3-Methylglutaric acid],-0.09665
